Test results published in patent US5177223A, “Indoleacetic acid derivatives, process for their preparation, and medicines containing same as active ingredients” (Zeria Pharmaceutical Co., Ltd., priority 1988, dated 1993).
Values joined by “and” are separate entries in the source; they are usually repeats but may differ in a detail not shown here. Equal entries are not always repeated. Structures can show the parent of a compound that is named as a salt. Where two headings read alike, the source gives them in different places.

What was measured:
[1] = system: carrageenin plantar edema; assay: Test of Carrageenin Plantar Edema; format: in vivo, Male Wistar rats; details: for ED50: read-out: Carrageenin edema ED50; for inhibition rate at the peak compared with that of indomethacin: 84.0 μmol/kg; for inhibition rate at the peak compared with that of indomethacin / ED50 value relative to that of indomethacin: compared with indomethacin
Method: Test of Carrageenin Plantar Edema
After the body weight of each rat had been measured, the volume of the right hind-leg of the rat was measured by using an apparatus for measuring plantar volumes. The rats were then divided into groups so that the groups have the same body weight average and plantar volume average. A test compound was suspended in an aqueous solution of 5% tragacanth gum and then orally administered to each of the rats. 0.1 ml of a physiological saline of 1% carrageenin was hypodarmically injected into the sole of the right hind-leg of each rat. The volume was measured for each rat every 1 hour for 5 hours. An edema rate was determined by using a rate of increase in the volume measured after treatment to the volume measured before treatment.

gastric mucosa = assay: Test of Injury to Gastric Mucosa; format: in vivo, Male Wistar rats; parameters: key to Ulcer Index: ulcer index determined by the Munchow method; details: oral, rat; for Ulcer occurrence (%) / Ulcer Index: 5 hours; for degree of injury to the gastric mucosa: as compared with indomethacin
Method: Test of Injury to Gastric Mucosa
Male Wistar rats each having a body weight of about 180 to 200 g were divided into groups consisting of 10 rats and were fasted for 24 hours. After body weight of each rat has been measured, a test compound was suspended in an aqueous solution of 5% tragacanth gum and then orally administered to each rat. The rats were fasted again, and after 5 hours had passed, they were killed by cervical dislocation. A 1% formalin solution was injected into the gastric cavity of each of the rats so that it was semifixed. The gaster of each rat was cut along the greater curvature of the stomach, and the ulcer index of each rat was measured under a stereoscopic microscope and determined by the Munchow method. The Mann-Whitney U-test was applied to the statistic data processing.

ICR male mice = assay: Acute Toxicity Test; format: in vivo; details: oral, single dose 25, 50 and 75 mg/kg each
Method: A test compound was suspended in an aqueous solution of 5% gum arabic and then orally administered to each of 4 to 5-week old ICR male mice (Charles River Co., Ltd.) each having a body weight of 22 to 30 g in each group consisting of 3 to 4 mice, once in each of doses 25, 50, 75, 200 and 500 mg/kg.

gastric-acid secretion = assay: Test of Inhibition of Gastric-Acid Secretion by Histamine Stimulation; format: in vivo, Male SD rats; details: rat
Method: Test of Inhibition of Gastric-Acid Secretion by Histamine Stimulation
A feeding tube (fr. 3.5) for injecting test medicines was inserted into the duodenum, and the pylorus was ligatured. A polyethylene tube (inner diameter: 7 mm) was used in the anterior stomach and gastric fistula was performed. After washing the inside of the stomach with heated physiological salt solution (37° C.) several times, the body was closed. A tube with a fin was inserted into the caudal vein and was fastened with a tape and it was connected to a infusion pump (Harvard). The rats were enclosed in a KN Ballman II cage (Natsume Seisakusho). Gastric juice flowed from the fistula was collected with a messcylinder every one hour. Starting from one hour after the operation, histamine was continuously injected at a rate of 1.4 ml/hour through the caudal vein. Then, test compounds suspended in 0.5% sodium caboxy methyl cellulose (Na-CMC) were administered one hour after the start of the histamine injection. The gastric juice thus extracted in a period from one hour after the administration of the chemical to four hours after that was titrated by using an automatic titration apparatus (Kyoto Electronic) with 0.1N NaOH to adjust pH 7, and the quantity of the gastric juice was measured to obtain the total acid output.

[2] = oral, rat, dose 8.4 μmol/kg (Example 2 6.4, Example 5 6.9, indomethacin 3.0 mg/kg)
[3] = oral, rat, dose 28.0 μmol/kg (Example 5 23.0, indomethacin 10.0 mg/kg)
[4] = oral, rat, dose 84.0 μmol/kg (Example 2 64.0, Example 5 69.0, indomethacin 30.0 mg/kg)
[5] = dose 28.0 μmol/kg (Example 5 23.0, indomethacin 10.0 mg/kg)
[6] = dose 28.0 μmol/kg (Example 5 23.0, indomethacin 10.0 mg/kg), ** p < 0.01
[7] = dose 84.0 μmol/kg (Example 2 64.0, Example 5 69.0, indomethacin 30.0 mg/kg)
[8] = dose 84.0 μmol/kg (Example 2 64.0, Example 5 69.0, indomethacin 30.0 mg/kg), ** p < 0.01
[9] = dose 25.2 μmol/kg (Example 2 19.2 mg/kg)

COc1ccc2c(c1)c(CC(=O)O)c(C)n2C(=O)c1ccc(Cl)cc1 [Indomethacin, indomethacin, reference compound]
ED50 ([1]; Rattus norvegicus, po): 20.6 µmol/kg and 7.4 mg/kg
Carrageenin edema inhibition (%) rate at peak ([1]; oral, rat, dose 2.8 μmol/kg (indomethacin 1.0 mg/kg)): 24.6%
Carrageenin edema inhibition (%) rate at peak [1, 2]: 49.8%
Carrageenin edema inhibition (%) rate at peak [1, 3]: 59.4%
Carrageenin edema inhibition (%) rate at peak [1, 4]: 55.9%
Ulcer occurrence (%) (gastric mucosa; [5]): 70%
Ulcer Index (gastric mucosa; [6]): 46.5 ± 15.00
Ulcer occurrence (%) (gastric mucosa; dose 56.0 μmol/kg (indomethacin 20.0 mg/kg)): 70%
Ulcer Index (gastric mucosa; dose 56.0 μmol/kg (indomethacin 20.0 mg/kg), ** p < 0.01): 52.8 ± 17.47
Ulcer occurrence (%) (gastric mucosa; [7]): 80%
Ulcer Index (gastric mucosa; [8]): 62.1 ± 16.50
death of mice (ICR male mice): all the mice in the groups, to which 25, 50 and 75 mg/kg of indomethacin were respectively administered, died

COc1ccc2c(c1)c(CC(=O)OCCSCC(=O)NCCCOc1cccc(CN3CCCCC3)c1)c(C)n2C(=O)c1ccc(Cl)cc1 [Example 5, 2-[N-[3-[3-(piperidinomethyl)phenoxy]propyl]carbamoylmethylthio]ethyl 1-(4-chlorobenzoyl)-5-methoxy-2-methyl-3-indolylacetate maleate]
inhibition rate at the peak compared with that of indomethacin ([1]; oral, rat): slightly higher
Carrageenin edema inhibition (%) rate at peak [1, 2]: 19.1%
Carrageenin edema inhibition (%) rate at peak [1, 3]: 41.2%
Carrageenin edema inhibition (%) rate at peak [1, 4]: 68.4%
Carrageenin edema inhibition (%) rate at peak ([1]; oral, rat, dose 280.0 μmol/kg (Example 5 230.0 mg/kg)): 72.7%
ED50 value relative to that of indomethacin ([1]; oral, rat): about 2 times
ED50 ([1]; oral, rat): 47.8 µmol/kg and 39.3 mg/kg
Ulcer occurrence (%) (gastric mucosa; [5]): 0%
Ulcer Index (gastric mucosa; [6]): 0.1 ± 0.01
Ulcer occurrence (%) (gastric mucosa; [7]): 0%
Ulcer Index (gastric mucosa; [8]): 0.0 ± 0.00
Ulcer Index (gastric mucosa; dose 280.0 μmol/kg (Example 5 230.0 mg/kg)): 0.0 ± 0.00
degree of injury to the gastric mucosa (gastric mucosa): extremely low degree of injury
Gastric-acid secretion inhibition rate (%) (gastric-acid secretion; dose 22 mg/kg): 47.4%
Gastric-acid secretion inhibition rate (%) (gastric-acid secretion; dose 44 mg/kg): 74.1%

COc1ccc2c(c1)c(CC(=O)OCC(=O)NCCCOc1cccc(CN3CCCCC3)c1)c(C)n2C(=O)c1ccc(Cl)cc1 [Example 2, N-[3-[3-(piperidinomethyl)phenoxy]propyl]carbamoylmethyl 1-(4-chlorobenzoyl)-5-methoxy-2-methyl-3-indolylacetate maleate]
inhibition rate at the peak compared with that of indomethacin ([1]; oral, rat): slightly higher
Carrageenin edema inhibition (%) rate at peak [1, 2]: 34.9%
Carrageenin edema inhibition (%) rate at peak ([1]; oral, rat, dose 25.2 μmol/kg (Example 2 19.2 mg/kg)): 50.4%
Carrageenin edema inhibition (%) rate at peak [1, 4]: 62.6%
ED50 value relative to that of indomethacin ([1]; oral, rat): substantially the same
ED50 ([1]; oral, rat): 27.8 µmol/kg and 21.1 mg/kg
Ulcer Index (gastric mucosa; [9]): 1.3 ± 0.63
Ulcer occurrence (%) (gastric mucosa; [9]): 0%
Ulcer occurrence (%) (gastric mucosa; [7]): 14%
Ulcer Index (gastric mucosa; [8]): 5.9 ± 4.92
Ulcer occurrence (%) (gastric mucosa; dose 251.9 μmol/kg (Example 2 192.0 mg/kg)): 40%
Ulcer Index (gastric mucosa; dose 251.9 μmol/kg (Example 2 192.0 mg/kg), * p < 0.05): 17.5 ± 15.84
degree of injury to the gastric mucosa (gastric mucosa): extremely low degree of injury

CN/C(=N/CCSCc1nc[nH]c1C)NC#N [Cimetidine, reference compound]
Gastric-acid secretion inhibition rate (%) (gastric-acid secretion; dose 30 mg/kg): 32.3%
